What all share (assay type): cell-based
In one experiment the target is T1, CaV3.2 (Homo sapiens, UniProt O95180).
T1 construct: expressed in transfected cells; host or cells: unnamed doxycycline-inducible cell line
Put plainly: High-throughput CaV3.2/Kir2.3 T-type FLIPR fluorescent assay. The following applies: Fluo-4 FLIPR, closed or inactivated state not stated. The gist of the method: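 Doxycycline-induced cells loaded with Fluo-4, preincubated 20 min at 29°C with compound in 2 mM KCl (closed-state) or 7.6 mM KCl (inactivated-state) buffer, pH 7.4. Calcium entry triggered by 12 mM or 14.5 mM KCl respectively; fluorescence read 3 min by FLIPR, IC50 from logistic fit.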

For the next experiment, the target named is T2, CaV3.1 (Homo sapiens, UniProt O43497).
T2 construct: expressed in transfected cells; host or cells: unnamed doxycycline-inducible cell line
The experiment in a line: High-throughput CaV3.1 T-type FLIPR fluorescent assay. The following applies: Fluo-4 FLIPR. The gist of the method: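 Doxycycline-induced CaV3.1 cells were loaded with Fluo-4 at 29 °C and pre-incubated with compound for 20 min at 29 °C in low-Ca2+ buffer (0.001 mM CaCl2, pH 7.2). Calcium entry was triggered by buffer containing 6 mM CaCl2, and Fluo-4 fluorescence was recorded on FLIPR for 3 min. IC50 came from logistic fits.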

The target in the next experiment is T3, CaV2.2 (Homo sapiens, UniProt Q00975).
T3 construct: expressed in transfected cells; host or cells: unnamed doxycycline-inducible cell line
Put plainly: High-throughput CaV2.2/Kir2.3 FLIPR fluorescent assay. The following applies: Fluo-4 FLIPR, closed or inactivated state not stated, read-out: FLIPR data CaV2.2. The procedure, abridged:
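Doxycycline-induced cells moved to 29 °C on assay day and were loaded with 4.4 μM Fluo-4. They were held in 2 mM KCl (closed state) or 12.5 mM KCl (inactivated state) buffer, pH 7.4, then depolarized with 130 mM KCl. Fluorescence was read 3 min on FLIPR, and IC50 was obtained from logistic fits.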

Read-outs that look alike come from different tables or passages of the source.

T3 sequence (Q00975 whole entry): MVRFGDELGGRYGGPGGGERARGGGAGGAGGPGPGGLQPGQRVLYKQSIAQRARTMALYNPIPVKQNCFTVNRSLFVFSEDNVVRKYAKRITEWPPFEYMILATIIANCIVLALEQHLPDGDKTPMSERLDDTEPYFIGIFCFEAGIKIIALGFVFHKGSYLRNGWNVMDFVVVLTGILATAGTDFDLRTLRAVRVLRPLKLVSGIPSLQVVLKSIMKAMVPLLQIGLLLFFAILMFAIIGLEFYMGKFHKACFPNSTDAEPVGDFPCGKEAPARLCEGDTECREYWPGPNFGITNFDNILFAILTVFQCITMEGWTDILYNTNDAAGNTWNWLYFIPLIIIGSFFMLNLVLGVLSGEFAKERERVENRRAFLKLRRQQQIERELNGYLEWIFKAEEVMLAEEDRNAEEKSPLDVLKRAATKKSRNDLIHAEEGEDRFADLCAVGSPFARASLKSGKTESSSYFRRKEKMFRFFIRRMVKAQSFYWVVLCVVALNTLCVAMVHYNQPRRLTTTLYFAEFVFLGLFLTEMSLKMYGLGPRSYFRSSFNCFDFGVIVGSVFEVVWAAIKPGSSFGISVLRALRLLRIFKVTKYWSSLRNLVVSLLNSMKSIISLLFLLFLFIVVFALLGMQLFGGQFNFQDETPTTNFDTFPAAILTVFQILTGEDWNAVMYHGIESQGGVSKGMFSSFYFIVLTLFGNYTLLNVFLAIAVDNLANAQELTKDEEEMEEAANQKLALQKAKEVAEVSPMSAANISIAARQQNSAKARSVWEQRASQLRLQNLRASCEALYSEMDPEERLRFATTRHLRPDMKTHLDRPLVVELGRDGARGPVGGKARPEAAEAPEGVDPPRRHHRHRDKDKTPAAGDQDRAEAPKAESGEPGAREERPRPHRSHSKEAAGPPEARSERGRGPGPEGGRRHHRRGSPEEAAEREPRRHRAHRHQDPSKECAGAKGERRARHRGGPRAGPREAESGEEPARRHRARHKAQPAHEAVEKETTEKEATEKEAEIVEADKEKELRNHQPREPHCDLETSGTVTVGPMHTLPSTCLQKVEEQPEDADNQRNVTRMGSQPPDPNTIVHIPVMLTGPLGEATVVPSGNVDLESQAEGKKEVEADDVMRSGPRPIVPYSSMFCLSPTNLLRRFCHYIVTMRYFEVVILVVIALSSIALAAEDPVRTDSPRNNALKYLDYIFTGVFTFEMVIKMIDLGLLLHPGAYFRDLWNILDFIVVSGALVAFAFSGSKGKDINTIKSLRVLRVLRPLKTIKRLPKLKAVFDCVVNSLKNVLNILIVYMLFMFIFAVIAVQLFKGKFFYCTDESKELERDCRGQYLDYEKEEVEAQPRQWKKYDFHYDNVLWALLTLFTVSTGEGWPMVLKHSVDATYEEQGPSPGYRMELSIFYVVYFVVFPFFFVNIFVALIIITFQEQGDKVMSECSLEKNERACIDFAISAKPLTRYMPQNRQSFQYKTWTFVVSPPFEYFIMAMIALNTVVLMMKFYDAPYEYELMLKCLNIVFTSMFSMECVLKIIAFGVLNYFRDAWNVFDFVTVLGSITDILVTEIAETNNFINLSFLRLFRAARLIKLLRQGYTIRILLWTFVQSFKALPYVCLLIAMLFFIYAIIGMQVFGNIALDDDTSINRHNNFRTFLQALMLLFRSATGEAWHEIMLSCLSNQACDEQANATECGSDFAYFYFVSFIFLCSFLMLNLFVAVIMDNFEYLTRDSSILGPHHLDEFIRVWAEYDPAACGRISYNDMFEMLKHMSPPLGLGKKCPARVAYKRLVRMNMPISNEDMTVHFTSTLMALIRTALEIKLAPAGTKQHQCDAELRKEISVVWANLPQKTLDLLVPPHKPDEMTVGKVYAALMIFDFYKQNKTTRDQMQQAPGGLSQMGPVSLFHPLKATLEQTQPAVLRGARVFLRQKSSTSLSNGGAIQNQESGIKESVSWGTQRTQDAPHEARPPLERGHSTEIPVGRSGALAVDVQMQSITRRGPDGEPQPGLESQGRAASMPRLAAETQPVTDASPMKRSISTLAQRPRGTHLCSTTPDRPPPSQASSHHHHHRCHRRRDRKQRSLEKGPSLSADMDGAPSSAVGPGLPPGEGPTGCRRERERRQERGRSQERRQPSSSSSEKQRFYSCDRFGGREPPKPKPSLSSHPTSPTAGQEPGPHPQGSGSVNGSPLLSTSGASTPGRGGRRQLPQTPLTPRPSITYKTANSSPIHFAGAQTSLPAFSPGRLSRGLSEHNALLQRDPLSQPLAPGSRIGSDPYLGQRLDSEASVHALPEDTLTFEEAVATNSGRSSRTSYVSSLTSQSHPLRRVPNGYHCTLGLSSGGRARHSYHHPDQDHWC
T3 sequence (P54284 whole entry partner): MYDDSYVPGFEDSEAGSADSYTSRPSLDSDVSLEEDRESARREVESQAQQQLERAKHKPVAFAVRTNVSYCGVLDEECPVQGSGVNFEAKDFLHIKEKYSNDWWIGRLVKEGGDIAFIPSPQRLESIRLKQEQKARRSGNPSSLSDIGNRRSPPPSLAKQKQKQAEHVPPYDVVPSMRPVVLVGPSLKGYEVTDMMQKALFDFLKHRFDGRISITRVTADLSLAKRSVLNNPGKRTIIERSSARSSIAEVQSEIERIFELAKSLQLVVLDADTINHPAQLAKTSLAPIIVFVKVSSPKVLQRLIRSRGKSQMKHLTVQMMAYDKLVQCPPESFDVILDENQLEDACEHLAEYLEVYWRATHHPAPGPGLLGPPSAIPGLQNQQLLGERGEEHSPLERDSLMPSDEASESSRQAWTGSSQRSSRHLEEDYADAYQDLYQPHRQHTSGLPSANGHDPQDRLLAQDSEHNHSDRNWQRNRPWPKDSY
T3 sequence (P54289 25-946 partner limits assumed): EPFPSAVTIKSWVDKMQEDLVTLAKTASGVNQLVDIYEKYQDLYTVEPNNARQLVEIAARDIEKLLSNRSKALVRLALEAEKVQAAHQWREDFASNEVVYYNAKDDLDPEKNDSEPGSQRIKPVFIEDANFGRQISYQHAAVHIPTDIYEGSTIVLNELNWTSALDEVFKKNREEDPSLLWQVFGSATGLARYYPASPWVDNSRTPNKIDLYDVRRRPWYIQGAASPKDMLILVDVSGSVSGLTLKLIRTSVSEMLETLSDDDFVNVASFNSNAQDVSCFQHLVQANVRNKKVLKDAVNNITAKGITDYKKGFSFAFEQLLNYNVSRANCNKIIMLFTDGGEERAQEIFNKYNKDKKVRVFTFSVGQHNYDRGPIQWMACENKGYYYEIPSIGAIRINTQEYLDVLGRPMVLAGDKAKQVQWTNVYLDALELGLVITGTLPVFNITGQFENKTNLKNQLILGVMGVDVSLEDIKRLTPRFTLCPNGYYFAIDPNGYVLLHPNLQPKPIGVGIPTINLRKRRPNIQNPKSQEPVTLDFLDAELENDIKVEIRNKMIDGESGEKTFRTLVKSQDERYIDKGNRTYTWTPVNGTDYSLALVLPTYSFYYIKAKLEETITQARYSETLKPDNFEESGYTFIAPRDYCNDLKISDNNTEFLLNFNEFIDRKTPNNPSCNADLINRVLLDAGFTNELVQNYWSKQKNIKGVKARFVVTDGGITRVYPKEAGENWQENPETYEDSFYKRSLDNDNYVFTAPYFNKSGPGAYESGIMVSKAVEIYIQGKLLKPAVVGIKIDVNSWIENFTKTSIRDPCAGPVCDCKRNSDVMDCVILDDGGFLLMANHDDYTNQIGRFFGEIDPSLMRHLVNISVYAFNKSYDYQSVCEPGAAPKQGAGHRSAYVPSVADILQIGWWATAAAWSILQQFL
T3 sequence (P54289 947-1103 partner limits assumed): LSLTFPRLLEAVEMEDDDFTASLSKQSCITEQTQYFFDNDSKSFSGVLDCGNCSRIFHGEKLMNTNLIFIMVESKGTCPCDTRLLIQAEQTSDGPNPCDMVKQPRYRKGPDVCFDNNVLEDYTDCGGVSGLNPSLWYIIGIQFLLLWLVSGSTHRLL

For `O=C(NCc1cccc(S(=O)(=O)c2cccc(C(F)(F)F)c2)c1)c1cnc(C(F)(F)F)nc1` [Compound 26, 2-(trifluoromethyl)-N-(3-((3-(trifluoromethyl)phenyl)sulfonyl)benzyl)pyrimidine-5-carboxamide], the IC50 against CaV3.2 (Table 4) amounted to 1180 nM; against CaV3.1 (Table 4), 1880 nM; on CaV2.2 (Table 4), 580 nM.
As to `CC(C)(C(=O)Nc1ccc(Oc2ccc(F)c(Cl)c2)nc1)S(=O)(=O)c1cccc(OC(F)(F)F)c1` [Compound 121, N-(6-(3-chloro-4-fluorophenoxy)pyridin-3-yl)-2-methyl-2-((3-(trifluoromethoxy)phenyl)sulfonyl)propanamide], the values for the IC50 on CaV3.2 (Table 5), on CaV3.1 (Table 5) and at CaV2.2 (Table 5) were 1150 nM, 4900 nM and 660 nM, respectively.
Take `O=C(NCc1ccccc1S(=O)(=O)c1cccc(C(F)(F)F)c1)c1ccc(F)c(Cl)c1` [Compound 52, 3-chloro-4-fluoro-N-(2-((3-(trifluoromethyl)phenyl)sulfonyl)benzyl)benzamide]: the IC50 against CaV3.2 (Table 4) stood at 1300 nM; on CaV3.1 (Table 4), 680 nM; on CaV2.2 (Table 4) it was 740 nM.
`O=C1c2cc(C(F)(F)F)nn2CCN1Cc1ccccc1S(=O)(=O)c1cccc(C(F)(F)F)c1` [Compound 35, 2-(trifluoromethyl)-5-(2-((3-(trifluoromethyl)phenyl)sulfonyl)benzyl)-6,7-dihydropyrazolo[1,5-a]pyrazin-4(5H)-one]: the IC50 was determined as 1740 nM against CaV3.2 (Table 4), 1850 nM against CaV3.1 (Table 4) and 1220 nM at CaV2.2 (Table 4).
The like results for `CS(=O)(=O)c1cc(C(F)(F)F)cnc1C(=O)NCc1ccccc1S(=O)(=O)c1cccc(C(F)(F)F)c1` [Compound 43, 3-(methylsulfonyl)-5-(trifluoromethyl)-N-(2-((3-(trifluoromethyl)phenyl)sulfonyl)benzyl)picolinamide] were, in that order, 3380 nM, 1420 nM and 670 nM.

These data come from US20140113898A1, “BISARYLSULFONE AND DIALKYLARYLSULFONE COMPOUNDS AS CALCIUM CHANNEL BLOCKERS” (Zalicus Pharmaceuticals Ltd., priority 2010, published 2014).
